{
  "source": "patent US20200375691A1",
  "about": "“PERACETIC ACID VAPOR STERILIZATION SYSTEM” (Medivators Inc., priority 2018, published 2020)",
  "key": {"[1]": {"test_system": "Mesa brand biological indicator (BI)", "test": "System 220 bubbler flow through elevator wire channel, biological indicator kill", "assay_type": "cell-based", "source_text": "In this embodiment, vapor system 220 was substantially modified to allow PAA vapor to flow from the bubbler 231 into an endoscope's elevator wire channel 270. To generate flow, a duodenoscope was placed in a poly tray (no terminal packaging was used) and the elevator wire channel of the endoscope was connected to the flow path. The vacuum chamber 240 was evacuated to 20 torr (±5 torr) so as to create enough pressure differential to flow PAA vapor 232A without any additional mechanical assistance, such as a pump. The flow rate was estimated to be about 150 ml per minute. Potential system leaks were assessed by closing the On/Off valve of the bubbler, isolating the chamber in manual control mode, and holding for 5 minutes. Chamber leak rate was determined to be less than 0.5 torr per five minutes. Depending on the application and the size of the bubbler vessel, PAA flow rate was to be controlled via the needle valve. In this illustrated embodiment, needle valve 252 was in its maximum flow position during all experiments, indicating needle valve 252 was not needed. Flow of PAA vapor to the distal tip of the scope was assured by affixing a PAA chemical indicator (CI) 280. Additional CIs were placed throughout the chamber to monitor for the presence of residual PAA presence, but these were optional and not critical to the operation of system 220. […]"}, "[2]": {"test_system": "Geobacillus stearothermophilus", "test": "Colonoscope sterilization in 60 liter stainless steel chamber", "assay_type": "cell-based", "details": "colonoscope CFQ-160 L, bubbler 4 L/min, circulation approximately 12 L/min, 60 minutes, 6-7 log inoculum", "method": "A 60 liter stainless steel chamber was used to determine the effect of chamber size on the efficacy of the bubbler system when the chamber size and material were changed. The flow rate used was 4 L/min for a bubbler and approximately 12 L/min for circulation and the sterilization time was for 60 minutes. Twenty-two inoculated surfaces were studied with the colonoscope (CFQ-160 L). Each scope was inoculated on both the exterior and interior of the lumens with Geobacillus stearothermophilus suspended in serum or saline solution at a target concentration of microorganisms of 6-7 log for each run."}, "[3]": {"details": "limit that the residual is compared with; cited from earlier work"}, "[4]": {"test_system": "Geobacillus stearothermophilus", "test": "Sterilization of inoculated flexible endoscopes with PAA vapor from a one liter glass bubbler", "assay_type": "cell-based", "details": "6-7 log inoculum, chamber at room temperature", "source_text": "A one liter glass bubbler as the vapor system was used to test three different flexible endoscopes to determine the efficacy of the system against microorganisms as a function of size and architecture of endoscope.\nThe three endoscope types were chosen to meet the three primary conditions of flexible endoscopes: • Long endoscope: XSIF-100 • Complex channel system scope: CFQ-160L • Basic/small scope: BF-P40 and BF-P30\nEach scope was inoculated on both the exterior and interior of the lumens with Geobacillus stearothermophilus suspended in serum or saline solution at a target concentration of microorganisms of 6-7 log for each run. The scope was then sealed inside a double Tyvek bag with a hookup adaptor. Each flexible endoscope was evaluated for a total of 22 inoculated surfaces to achieve a greater than 95% confidence level.\nThe test conditions for each scope are described below: • For CF-Q160L endoscope: • a. Bubbler flow rate: 4000 mL/min • b. Circulation Flow Rate: 12000 mL/min • c. Contact Time: 60 min\nFor XSIF-100 endoscope: • a. Bubbler flow rate: […] • b. Circulation Flow Rate: 11000 mL/min • c. Contact Time: 15 min and 30 min\nFor BF-P40 and BF-P30 endoscopes: • a. Bubbler flow rate: 4000 mL/min • b. Circulation Flow Rate: 11000 mL/min • c. Contact Time: 30 min\nThe chamber for all the runs was at room temperature."}, "[5]": {"test_system": "Geobacillus stearothermophilus spores", "test": "Heated bubbler Cycle 253, inoculated Olympus TJF-160 duodenoscope without hookups", "assay_type": "cell-based", "details": "Cycle 253: contact time 1200, 3 inj, 6-logs of spores, no hookups", "source_text": "(§1) An assortment of process challenge devices (PCDs) were procured as a rough gauge to see what modes of sterilization are possible with the current bubbler 430 setup. These devices included simple Tyvek bags containing BIs, a syringe based PCD which contained a BI, a HF2000 Hemofilter cut to allow a BI to be inserted into the fiber mesh, and an artificial bone matrix provided by the REVOX team. Additionally, an Olympus TJF160 duodenoscope was inoculated with 6-log of bacteria on the exterior surface and within the scope lumens and was exposed to a Bubbler cycle with no hookups. This scope was used to assess penetration of sterilant down fine lumens.\nThe difference between heated and non-heated bubbler systems is the resulting humidity present in the chamber during the sterilization cycles. The humidity level on Cycle 250, as an example, exceeded 100% relative humidity. Maximum humidity levels were recorded by visual observation. The importance of humidity was again shown in Cycle 251 where humidity levels never exceeded 60% while testing a rapid, multi block cycle. […] Cycle 252 was used to test the effect of a single block run with a longer period of hold. […] Cycle 253 tested the penetration of Bubbler created PAA vapor into the long lumens of an Olympus TJF-160 duodenoscope. […]"}, "[6]": {"test": "Evacuation of sterilant after sterilization: PAA in chamber and residuals on scope", "details": "after 30 minute ventilation", "source_text": "To evacuate the sterilant out after the sterilization process, the experiment utilized three additional parts to the system: • 1. Circulating fan inside the chamber lid to generate turbulence to promote the evacuation process. • 2. Air pump at the outlet vent to help remove the sterilant out of the system. • 3. Medical air inlet to dilute the concentration of PAA for faster evacuating process.\nThe process included a flow of medical air in at 15 L/min (flow through both chamber and lumen of scope) and a flow of air out of the chamber (generated by the air pump) and a circulation flow inside the chamber (generated by the fan). The equivalent of flow through the chamber allowed the pressure inside the chamber to be closer to atmospheric pressure to reduce scope damage and allow easier design of the chamber."}, "[7]": {"test_system": "biological indicators (BIs)", "test": "Heated 90 cm bubbler runs, biological indicators in beakers, Tyvek and process challenge devices", "assay_type": "cell-based", "method": "In this example embodiment of bubbler 430 and system 420, the Bubbler System was modified to accept a 50 mm outside diameter by 90 cm long glass tube (5 mm wall thickness) attached to a 417-liter REVOX system. During all experiments, 250 mL of REVOX PA liquid was measured by graduated cylinder and poured into the 90 cm Bubbler. The Bubbler System was connected to the 417-liter REVOX sterilization chamber referred to as an improved bubbler vessel configuration. Air was drawn into bubbler 430 using only the force of the vacuum within sterilization chamber. A simple on-off valve was used to control the flow of air through the bubbler, allowing for “blocks” to be created in a similar manner to a normal REVOX cycle. In several cases a flow meter and/or infrared vapor detector was used to monitor the output of the Bubbler. In all cases, unused functions of the modified Revox Sterilization chamber/system were turned off (e.g. Dehumidification Hold was always set to 0) or were disabled (e.g. scope flow valve power was physically unplugged).\nas §1\nThe difference between heated and non-heated bubbler systems is the resulting humidity present in the chamber during the sterilization cycles. The humidity level on Cycle 250, as an example, exceeded 100% relative humidity. Maximum humidity levels were recorded by visual observation. The importance of humidity was again shown in Cycle 251 where humidity levels never exceeded 60% while testing a rapid, multi block cycle. […] Cycle 252 was used to test the effect of a single block run with a longer period of hold. […] Cycle 253 tested the penetration of Bubbler created PAA vapor into the long lumens of an Olympus TJF-160 duodenoscope. The scope surface, elevator wire channel, air/water channel, and suction biopsy channel were each inoculated with 6-logs of Geobacillus stearothermophilus spores. No hookups were used to pass PAA vapor into the lumens.\nCycle 254 tested a single 15-minute contact time on BIs in the chamber and within a Tyvek pouch. With pump down and ventilation, the total run time was 22 minutes. […] Additionally, between 5 and 10 additional minutes could be cut out of the cycle to achieve the same results. This is based on the rate at which the chemical indicators bleach out within the chamber, which tends to happen less than 5 minutes after PAA exposure begins. Within this cycle as well, two different types of Cantel Medical PAA chemical indicators were used. No appreciable difference was observed between the two varieties of CIs. Cycles 255 and 256 provide insight into the utility of the large scale Bubbler technology. […] The results of the Hemofilter can be explained by the complexity of filter membrane and its massive surface area. More “blocks” or injections of PAA vapor are likely needed to saturate the filter membrane with PAA vapor. The bone matrix, however, is readily porous and should be easily sterilized under these conditions. […] It is hypothesized that the metal is causing a breakdown of the PAA vapor as it passes through the bone matrix."}, "[8]": {"details": "Cycle 254: contact time 900 (15-minute), 1 inj, inj 5 torr"}, "[9]": {"details": "Cycle 255: contact time 1200, 3 inj, inj 5 torr"}, "[10]": {"details": "Cycle 256: contact time 3600, 2 inj, inj 1 torr"}},
  "data": [
    {"molecule": "CC(=O)OO", "note": "[PAA, peracetic acid]", "values": [
      {"measurement": "BI Results", "setting": "[1]; contact time 600 seconds (Manual 1, Manual 2), chamber 20 torr, BI in vessel along flow path", "value": "alive"},
      {"measurement": "biological indicators", "setting": "[1]; scope flow time 30 minutes or greater", "value": "dead"},
      {"measurement": "survivors on 22 inoculated surfaces, scope and biological indicators", "setting": "[2]", "value": "no survivors"},
      {"measurement": "worst case residual toxicity", "setting": "[3]", "value": "7050 mg of PAA per total device"},
      {"measurement": "Result: survivors on 22 inoculated surfaces", "setting": "[4]; Bronchoscope BF-P40 and BF-P30, bubbler 4000 mL/min, circulation 11000 mL/min, contact 30 min", "value": "All 22 inoculated surfaces have no"},
      {"measurement": "Result: survivors on 22 inoculated surfaces", "setting": "[4]; Colonoscope CFQ-160L, bubbler 4000 mL/min, circulation 12000 mL/min, contact 60 min", "value": "All 22 inoculated surfaces have no"},
      {"measurement": "Result: survivors on 22 inoculated surfaces", "setting": "[4]; Enteroscope XSIF-100, bubbler 4000 mL, circulation 11000 mL/min, contact 15 min and 30 min", "value": "All 22 inoculated surfaces have no"},
      {"measurement": "Scope Exterior", "setting": "[5]", "value": "full kill"},
      {"measurement": "Scope Lumens", "setting": "[5]", "value": 1, "unit": "log reduction"},
      {"measurement": "residuals on the scope", "setting": "[6]", "value": "30 mg of PAA"},
      {"measurement": "BI Results: BIs in Beakers (negative = kill)", "setting": "[7]; Cycle 250: contact time 1200, 3 inj, inj 5 torr, post inj 500 torr, humidity exceeded 100%", "value": "complete kill"},
      {"measurement": "BI Results: BIs in Beakers", "setting": "[7]; Cycle 251: contact time 60, 20 inj, inj 5 torr, humidity never exceeded 60%", "value": "No kill"},
      {"measurement": "BI Results: BIs in Beakers", "setting": "[7]; Cycle 252: contact time 1800, 1 inj, inj 5 torr, humidity exceeded 100%", "value": "Kill was achieved"},
      {"measurement": "BI Results: BIs in Beakers", "setting": "[7]; [8]", "value": "sterilized"},
      {"measurement": "BI Results: BIs in Tyvek", "setting": "[7]; [8]", "value": "sterilized"},
      {"measurement": "BI Results: BIs in Syringe PCD", "setting": "[7]; [9]", "value": "able to kill"},
      {"measurement": "BI Results: Bone Marrow BI", "setting": "[7]; [9]", "value": "not able to kill"},
      {"measurement": "BI Results: Hemofilter PCD BI", "setting": "[7]; [9]", "value": "not able to kill"},
      {"measurement": "BI Results: Bone Marrow PCD", "setting": "[7]; [10]", "value": "not able to kill"},
      {"measurement": "BI Results: Hemofilter PCD", "setting": "[7]; [10]", "value": "not able to kill"},
      {"measurement": "BI Results: Syringe PCD", "setting": "[7]; [10]", "value": "able to kill"}
    ]}
  ]
}
